Results as given in the NIST ThermoML archive (doi:10.1021/je900874z).

Assays:
[1] = 101.33 kPa, Liquid; for speed of sound: Pulse-echo method
[2] = xn = mol fraction of the nth substance listed; conditions: 101 kPa, Liquid

CC(C)=O [acetone]
[1]
Conditions | mass density [kg/m3] | speed of sound [m/s]
293.15 K | 790.694 | 1182.8
298.15 K | 785.32 | 1160.7
303.15 K | 778.812 | 1138.7

Nc1ccccc1 [aniline] + CC(C)=O
[2]
Conditions | mass density [kg/m3]
293.15 K, x2 = 0.0522 | 1013.71
293.15 K, x2 = 0.1078 | 1004.97
293.15 K, x2 = 0.1567 | 996.941
293.15 K, x2 = 0.2074 | 988.429
293.15 K, x2 = 0.249 | 981.269
293.15 K, x2 = 0.3016 | 971.707
293.15 K, x2 = 0.3454 | 963.326
293.15 K, x2 = 0.3832 | 955.799
293.15 K, x2 = 0.4313 | 946.013
293.15 K, x2 = 0.4908 | 933.416
293.15 K, x2 = 0.5497 | 920.272
293.15 K, x2 = 0.583 | 912.529
293.15 K, x2 = 0.6446 | 897.535
293.15 K, x2 = 0.6911 | 885.684
293.15 K, x2 = 0.7465 | 870.629
293.15 K, x2 = 0.8046 | 854.022
293.15 K, x2 = 0.8497 | 840.545
293.15 K, x2 = 0.9045 | 823.238
293.15 K, x2 = 0.9475 | 809.118
298.15 K, x2 = 0.0569 | 1008.67
298.15 K, x2 = 0.1088 | 1000.44
298.15 K, x2 = 0.1539 | 993.118
298.15 K, x2 = 0.1978 | 985.694
298.15 K, x2 = 0.2484 | 976.895
298.15 K, x2 = 0.3039 | 966.77
298.15 K, x2 = 0.3505 | 957.976
298.15 K, x2 = 0.4114 | 945.773
298.15 K, x2 = 0.4585 | 935.933
298.15 K, x2 = 0.5035 | 926.122
298.15 K, x2 = 0.5501 | 915.531
298.15 K, x2 = 0.5922 | 905.703
298.15 K, x2 = 0.6499 | 891.425
298.15 K, x2 = 0.6993 | 878.643
298.15 K, x2 = 0.7522 | 864.125
298.15 K, x2 = 0.8082 | 848.052
298.15 K, x2 = 0.8533 | 834.272
298.15 K, x2 = 0.8951 | 821.048
298.15 K, x2 = 0.9545 | 801.258
303.15 K, x2 = 0.0515 | 1005.02
303.15 K, x2 = 0.1002 | 997.272
303.15 K, x2 = 0.1475 | 989.506
303.15 K, x2 = 0.1926 | 981.799
303.15 K, x2 = 0.2399 | 973.527
303.15 K, x2 = 0.3024 | 962.003
303.15 K, x2 = 0.3475 | 953.088
303.15 K, x2 = 0.3947 | 943.989
303.15 K, x2 = 0.4503 | 932.55
303.15 K, x2 = 0.4979 | 922.075
303.15 K, x2 = 0.5502 | 910.191
303.15 K, x2 = 0.6037 | 897.422
303.15 K, x2 = 0.6464 | 886.697
303.15 K, x2 = 0.6975 | 873.362
303.15 K, x2 = 0.7548 | 857.721
303.15 K, x2 = 0.8078 | 842.147
303.15 K, x2 = 0.8567 | 827.148
303.15 K, x2 = 0.9014 | 812.779
303.15 K, x2 = 0.9494 | 796.575

Nc1ccccc1 [aniline]
[1]
Conditions | mass density [kg/m3] | speed of sound [m/s]
293.15 K | 1021.7 | 1657
298.15 K | 1017.41 | 1638.6
303.15 K | 1013.04 | 1619.2

c1ccncc1 [pyridine]
[1]
Conditions | mass density [kg/m3] | speed of sound [m/s]
293.15 K | 983.053 | 1436.7
298.15 K | 978.05 | 1416.7
303.15 K | 972.98 | 1396.6

CNc1ccccc1 [N-methylaniline] + CC(C)=O
[2]
Conditions | mass density [kg/m3]
293.15 K, x2 = 0.0565 | 979.562
293.15 K, x2 = 0.1032 | 973.934
293.15 K, x2 = 0.1494 | 968.145
293.15 K, x2 = 0.1916 | 962.605
293.15 K, x2 = 0.251 | 954.413
293.15 K, x2 = 0.2952 | 948.053
293.15 K, x2 = 0.3555 | 938.912
293.15 K, x2 = 0.4039 | 931.04
293.15 K, x2 = 0.4478 | 923.576
293.15 K, x2 = 0.4981 | 914.659
293.15 K, x2 = 0.5489 | 905.091
293.15 K, x2 = 0.5965 | 895.722
293.15 K, x2 = 0.6485 | 884.852
293.15 K, x2 = 0.7018 | 873.046
293.15 K, x2 = 0.7472 | 862.27
293.15 K, x2 = 0.802 | 848.69
293.15 K, x2 = 0.8563 | 834.277
293.15 K, x2 = 0.9053 | 820.343
293.15 K, x2 = 0.9548 | 805.391
298.15 K, x2 = 0.044 | 977.005
298.15 K, x2 = 0.0984 | 970.455
298.15 K, x2 = 0.1447 | 964.607
298.15 K, x2 = 0.1996 | 957.353
298.15 K, x2 = 0.2503 | 950.29
298.15 K, x2 = 0.2919 | 944.327
298.15 K, x2 = 0.3511 | 935.283
298.15 K, x2 = 0.3924 | 928.532
298.15 K, x2 = 0.452 | 918.415
298.15 K, x2 = 0.4948 | 910.794
298.15 K, x2 = 0.5563 | 899.086
298.15 K, x2 = 0.6004 | 890.231
298.15 K, x2 = 0.6473 | 880.387
298.15 K, x2 = 0.6962 | 869.434
298.15 K, x2 = 0.7506 | 856.501
298.15 K, x2 = 0.8009 | 843.758
298.15 K, x2 = 0.8518 | 830.205
298.15 K, x2 = 0.8986 | 816.915
298.15 K, x2 = 0.9488 | 801.799
303.15 K, x2 = 0.0461 | 972.638
303.15 K, x2 = 0.0934 | 966.889
303.15 K, x2 = 0.1524 | 959.343
303.15 K, x2 = 0.1937 | 953.815
303.15 K, x2 = 0.2442 | 946.596
303.15 K, x2 = 0.3357 | 933.026
303.15 K, x2 = 0.3991 | 922.737
303.15 K, x2 = 0.4904 | 906.677
303.15 K, x2 = 0.5507 | 895.228
303.15 K, x2 = 0.5949 | 886.274
303.15 K, x2 = 0.6467 | 875.21
303.15 K, x2 = 0.6928 | 864.807
303.15 K, x2 = 0.7424 | 852.961
303.15 K, x2 = 0.7993 | 838.524
303.15 K, x2 = 0.8469 | 825.646
303.15 K, x2 = 0.8977 | 811.117
303.15 K, x2 = 0.9484 | 795.598

CNc1ccccc1 [N-methylaniline]
[1]
Conditions | mass density [kg/m3] | speed of sound [m/s]
293.15 K | 986.077 | 1582.3
298.15 K | 982.066 | 1564.4
303.15 K | 978.011 | 1545.5

c1ccncc1 [pyridine] + CC(C)=O
[2]
Conditions | mass density [kg/m3]
293.15 K, x2 = 0.0577 | 973.393
293.15 K, x2 = 0.1007 | 966.028
293.15 K, x2 = 0.1536 | 956.946
293.15 K, x2 = 0.2043 | 948.163
293.15 K, x2 = 0.2219 | 945.011
293.15 K, x2 = 0.2968 | 931.713
293.15 K, x2 = 0.3537 | 921.354
293.15 K, x2 = 0.4051 | 911.899
293.15 K, x2 = 0.5191 | 890.383
293.15 K, x2 = 0.5519 | 884.082
293.15 K, x2 = 0.5969 | 875.296
293.15 K, x2 = 0.6425 | 866.297
293.15 K, x2 = 0.703 | 854.168
293.15 K, x2 = 0.7504 | 844.514
293.15 K, x2 = 0.8066 | 832.904
293.15 K, x2 = 0.8569 | 822.218
293.15 K, x2 = 0.9019 | 812.518
293.15 K, x2 = 0.9456 | 803.006
298.15 K, x2 = 0.0514 | 969.365
298.15 K, x2 = 0.0969 | 961.623
298.15 K, x2 = 0.1486 | 952.705
298.15 K, x2 = 0.2023 | 943.375
298.15 K, x2 = 0.2444 | 935.93
298.15 K, x2 = 0.296 | 926.692
298.15 K, x2 = 0.3544 | 916.021
298.15 K, x2 = 0.3965 | 908.33
298.15 K, x2 = 0.4516 | 898.006
298.15 K, x2 = 0.5036 | 888.119
298.15 K, x2 = 0.594 | 870.616
298.15 K, x2 = 0.6454 | 860.492
298.15 K, x2 = 0.6971 | 850.007
298.15 K, x2 = 0.7518 | 838.783
298.15 K, x2 = 0.8049 | 827.707
298.15 K, x2 = 0.8456 | 819.096
298.15 K, x2 = 0.8955 | 808.385
298.15 K, x2 = 0.9456 | 797.415
303.15 K, x2 = 0.0493 | 964.637
303.15 K, x2 = 0.0954 | 956.714
303.15 K, x2 = 0.1463 | 947.874
303.15 K, x2 = 0.1983 | 938.736
303.15 K, x2 = 0.2424 | 930.863
303.15 K, x2 = 0.2929 | 921.779
303.15 K, x2 = 0.3522 | 910.875
303.15 K, x2 = 0.4048 | 901.126
303.15 K, x2 = 0.4497 | 892.629
303.15 K, x2 = 0.497 | 883.593
303.15 K, x2 = 0.5412 | 875.069
303.15 K, x2 = 0.5965 | 864.243
303.15 K, x2 = 0.6594 | 851.677
303.15 K, x2 = 0.6912 | 845.142
303.15 K, x2 = 0.7491 | 833.115
303.15 K, x2 = 0.8475 | 812.305
303.15 K, x2 = 0.8946 | 802.071
303.15 K, x2 = 0.9443 | 791.125
